Measurements reported in patent US20070014736A1, “Methods of delivering corticotroph-derived glycoprotein hormone” (priority 2005, published 2007).

How the values were obtained:
[1] = test system: human primary adipocytes; test: CRE-luciferase reporter assay in human primary adipocytes; assay type: cell-based
Description: (§1) Differentiated murine 3T3 L1 adipocytes and primary human adipocytes were used to study signal transduction of CGH. 3T3 L1 fibroblasts were differentiated into adipocytes and the cells were transduced with recombinant adenovirus containing a reporter construct, a firefly luciferase gene under the control of cAMP response element (CRE) enhancer sequences. This assay system detects cAMP-mediated gene induction downstream of activation of Gs-coupled G-protein coupled receptors (GPCR's). […] In a separate experiment, undifferentiated 3T3 L1 fibroblasts were transduced with the recombinant adenovirus. […] In another experiment, human primary adipocytes were also transduced with the recombinant adenovirus containing a reporter construct. Treatment of the human adipocytes with isoproterenol produced a 17-fold induction of luciferase expression.
(§2) Cells were cultured at 37° C. in an 8% CO2 humidified incubator. Cells were seeded to collagen-coated 96-well plates (Becton Dickinson, cat. #356407) at a density of 5,000 cells per well. […] Luciferase activity was measured on a microplate luminometer (PerkinElmer Life Sciences, Inc., model LB 96V2R) following automated injection of 40 μl of luciferase assay substrate into each well. […]

[2] = test system: differentiated 3T3 L1 adipocytes; test: CRE-luciferase reporter assay in differentiated 3T3 L1 adipocytes; assay type: cell-based, murine
Description: as §1, §2

[3] = test system: adrenal glands; test: Intraperitoneal recombinant CGH for two weeks, adrenal weight; assay type: in vivo, mice; conditions: 0.5 mg/kg Dex i.p. daily, day 15
Description: Summary: Mice were exposed to CGH through infection with adenovirus particles expressing GPHA2 and GPHB5, leading to overexpression and secretion of CGH from the liver of these animals. […] The hypertrophy was apparent in the inner cortical layers, the zona fasciculata and the zona reticularis. Similarly, mice were exposed to CGH through intraperitoneal injection of recombinant CGH protein alone, recombinant CGH protein along with the glucocorticoid Dexamethasone (Dex), Dex alone, or PBS alone daily for two weeks.
Sixteen C57BL/6 female mice at 8 weeks of age were separated into four groups. The first group received daily injections of 0.25 mg/kg of recombinant CGH protein intraperitoneally. The second group received daily injections of PBS using the same procedure. The third group received daily injections of 0.25 mg/kg of CGH plus 0.05 mg/kg Dex and the final group received 0.5 mg/kg Dex, alone. Animals were sacrificed on day 15 and the adrenal glands were isolated and weighed. Example 5 describes the expression and purification of recombinant CGH protein used in this experiment.

[4] = test system: LPS-induced mild endotoxemia mouse model; test: LPS-induced mild endotoxemia mouse model, serum cytokines; assay type: in vivo, mice
Description: An in vivo experiment was designed to examine the effect of CGH in a mouse model of LPS-induced mild endotoxemia. This model mimics acute endotoxemia/sepsis by challenging mice with a low, non-lethal dose of bacterial endotoxin (lipopolysaccharide, LPS). Serum is collected at various timepoints (1-8 hours) after intraperitoneal LPS injection and analyzed for altered expression of a wide variety of pro- and anti-inflammatory cytokines and acute phase proteins that mediate the inflammatory response. The model provides a means to assess the potential anti-inflammatory effects of therapeutic candidates during a robust inflammatory response. To initially assess the model, we measured proinflammatory cytokines in a pilot experiment to collect reference data for the model.
C57B1/6 mice (Charles River Laboratories; 5 mice/group) were treated i.p. with PBS, 0.2 mg/kg CGH in PBS, or 2 mg/kg CGH in PBS 1 hour prior to LPS challenge. The mice were then challenged with 25 ug of LPS i.p. and bled at 1 hour and 4 hours after LPS injection. Serum was analyzed for TNF[…] (1 hour) and IL-6 (4 hours) levels by ELISA.
To determine if CGH would potentiate the effect of a sub-maximal dose of glucocorticoid, groups of 10 C57B1/6 mice each were treated i.p. with PBS, 0.15 or 1.5 mg/kg Dex, 2 mg/kg CGH, or a combination of CGH and low or high doses of Dex, 1 hour prior to injection of 25 ug LPS i.p. As shown in TABLE 3 (Expt #2), either 2 mg/kg CGH or 1.5 mg/kg Dex treatment alone (1 hour prior to LPS) caused a significant drop in serum TNFα levels at 1 hour, as observed in previous experiments. The effects of CGH administered in conjunction with Dex on inhibition of TNFα production were greater than either dose of Dex alone.

[5] = test system: neutrophil infiltration in the ears; test: Neutrophil (Gr-1) histomorphometry of ears in DTH experiment #1; assay type: in vivo, mice; conditions: 1.5 mg/kg Dex i.p. at challenge (day 7)
Description: Ears from mice in DTH experiment #1 were analyzed by immunohistochemistry to assess which cell types were most affected by CGH treatment. Ears were fixed in Zinc/Tris buffer (2.3 mM calcium acetate/31.6 mM zinc acetate/36.7 mM zinc chloride in 0.1M Tris-HCL buffer, pH 7.4) for 24 hours at room temperature and stained with antibodies specific for CD4, CD8, CD11c, and Gr-1 (neutrophils). […] Ears were stained using a TechMate 500 autoimmunostainer (Biotech/Ventana) MIP protocol with some modifications. […] This step was followed, after a wash, by biotinylated rabbit anti-rat IgG secondary antibody (Dako, used at 10 ug/ml in PBS with 2% normal rabbit serum and 2% nonfat dry milk) for 45 min. The sections were then washed and treated with HP Block (1.5% H2O2 in 50% methanol) 3 times, 7 min each, followed by 25 min in avidin-biotin complex, 3 times of 4 min each in DAB (Diaminobenzidine), then with Methyl green for 10 min.
From this staining procedure, there was a clear reduction in the number of neutrophils infiltrating the ears of those mice treated with CGH or Dex, compared to the PBS-treated controls. Histomorphometry was performed to obtain the average pixel density of neutrophils per unit length (1 mm) present in the ear samples. Despite a fair amount of variability among each group, there was a significant reduction in neutrophil staining in the Dex and low dose CGH groups, as well as a nearly significant (p=0.0507) reduction in the high dose CGH group (see TABLE 5, p values).

[6] = test system: Delayed Type Hypersensitivity (DTH) reaction; test: Delayed Type Hypersensitivity (DTH), change in ear thickness; assay type: in vivo, mice
[7] = target: T1, thyroid-stimulating hormone receptor (TSHR) expressed on BHK cells (BHK-TSHR cells) (UniProt P16473 21-764, limits assumed); test: radioligand saturation binding to BHK-TSHR cells, two-site non-linear regression, low-affinity site
T1 construct: whole, on cells; also called TSH receptor
Description: (§3) Binding reactions were terminated by removing the binding medium and the cell monolayers were washed three times with 1.0-2.0 ml of ice-cold PBS containing 1.0 mg/ml BSA and twice with 1.0-2.0 ml of ice cold albumin-free PBS. Cells were solubilized in 1.0 ml of 1.0N NaOH for 10 min at room temperature and cell-associated radioactivity was determined in a gamma counter. The measured radioactivity was normalized to cell number that was determined on plates of cells cultured in parallel. Binding data were analyzed by non-linear regression using Prizm 3.0 (GraphPad Software, San Diego, Calif.).

[8] = target: T1, thyroid-stimulating hormone receptor …; test: radioligand saturation binding to BHK-TSHR cells, two-site non-linear regression, high-affinity site
Description: as §3

[9] = target: T2, human TSHR (Homo sapiens, UniProt P16473); test: Bioactivity in BHK cells with CRE-luciferase reporter and human TSHR; assay type: cell-based; conditions: CRE-luciferase reporter
T2 construct: expressed in transfected cells; host or cells: BHK cells

[10] = test system: parental BHK cells lacking the TSHR; test: Binding of radioligands to parental BHK cells; conditions: data not shown
Description: as §3, with “BHK cells expressing murine or human TSHRs were cultured in Dulbecco's Modified Eagle's Medium [DMEM (high glucose)] containing 5% fetal bovine serum, 1% Glutamax, 1% sodium pyruvate, 250 nM methotrexate, and Geneticin ( 1/100). […] Plates of cells were placed on ice and washed twice with 1.0-2.0 ml of ice-cold PBS. […] Specific binding was determined in the presence (nonspecific binding) and absence (total binding) of unlabeled rhCGH (25.0 μg/ml) or TSH (10 μg/ml). Binding reactions” for “Binding reactions”

[11] = test system: TSHR; test: Binding of 125I-CGH and 125I-TSH to BHK cells expressing the TSHR; set-up: species or system murine or human
Description: as §3, with “BHK cells expressing murine or human TSHRs were cultured in Dulbecco's Modified Eagle's Medium [DMEM (high glucose)] containing 5% fetal bovine serum, 1% Glutamax, 1% sodium pyruvate, 250 nM methotrexate, and Geneticin ( 1/100). […] Plates of cells were placed on ice and washed twice with 1.0-2.0 ml of ice-cold PBS. […] Specific binding was determined in the presence (nonspecific binding) and absence (total binding) of unlabeled rhCGH (25.0 μg/ml) or TSH (10 μg/ml). Binding reactions” for “Binding reactions”

[12] = Expt 1, 1.5 mg/kg Dex i.p. at challenge (d7), 24 h
[13] = Expt 2, 1.5 mg/kg Dex i.p. at challenge (d7)
[14] = Expt 3, 1.5 mg/kg Dex i.p. at sensitization (d0-4)

CC(C)NCC(O)c1ccc(O)c(O)c1 (centres unmarked) [isoproterenol, reference compound]
induction of luciferase expression / reporter gene [1]: 17 fold
induction of luciferase expression [2]: 80 fold

C[C@@H]1C[C@H]2[C@@H]3CCC4=CC(=O)C=C[C@]4(C)[C@@]3(F)[C@@H](O)C[C@]2(C)[C@@]1(O)C(=O)CO [Dex, Dexamethasone, reference compound]
Average adrenal weight/100 g body weight [3]: 13.12 +/− 0.88
IL-6, 4 hours ([4]; Expt 2, 0.15 mg/kg Dex): 37.1 ± 8.8 ng/mL
TNFα, 1 hour ([4]; Expt 2, 0.15 mg/kg Dex): 1765 ± 589 pg/mL
IL-6, 4 hours ([4]; Expt 2, 1.5 mg/kg Dex): 16.0 ± 4.9 ng/mL
TNFα, 1 hour ([4]; Expt 2, 1.5 mg/kg Dex): 264 ± 138 pg/mL
Pixel density: Neutrophils, left ear (PBS) [5]: 749 +/− 686
Pixel density: Neutrophils, right ear (OVA) [5]: 3651 +/− 2779
Change in ear thickness, left ear (PBS) [6, 12]: 0.42 +/− 0.52 ×10^−3 inch
Change in ear thickness, right ear (OVA) [6, 12]: 2.62 +/− 1.18 ×10^−3 inch
Change in ear thickness, left ear (PBS) [6, 13]: 0.23 +/− 0.77 ×10^−3 inch
Change in ear thickness, right ear (OVA) [6, 13]: 2.89 +/− 1.29 ×10^−3 inch
Change in ear thickness, left ear (PBS) [6, 14]: 0.50 +/− 0.54 ×10^−3 inch
Change in ear thickness, right ear (OVA) [6, 14]: 4.38 +/− 1.34 ×10^−3 inch

B1: recombinant human Corticotroph-derived Glycoprotein Hormone (rhCGH), heterodimer of GPHA2 and GPHB5 (ligand)
chain 1: QEAVIPGCHLHPFNVTVRSDRQGTCQGSHVAQACVGHCESSAFPSRYSVLVASGYRHNITSVSQCCTISGLKKVKVQLQCVGSRREELEIFTARACQCDMCRLSRY
chain 2: ASSGNLRTFVGCAVREFTFLAKKPGCRGLRITTDACWGRCETWEKPILEPPYIEAHHRVCTYNETKQVTVKLPNCAPGVDPFYTYPVAIRCDCGACSTATTECETI
notes: correct NH2 termini reported; also called Thyrostimulin
Kd [7]: 2.7 mM
Kd [8]: 1.19 nM

B2: ^125I-CGH: rhCGH radiolabeled with 125I-Bolton Hunter Reagent (protein)
chain 1: QEAVIPGCHLHPFNVTVRSDRQGTCQGSHVAQACVGHCESSAFPSRYSVLVASGYRHNITSVSQCCTISGLKKVKVQLQCVGSRREELEIFTARACQCDMCRLSRY
chain 2: ASSGNLRTFVGCAVREFTFLAKKPGCRGLRITTDACWGRCETWEKPILEPPYIEAHHRVCTYNETKQVTVKLPNCAPGVDPFYTYPVAIRCDCGACSTATTECETI
bioactivity compared to unlabeled counterpart [9]: no significant differences
binding to parental BHK cells lacking the TSHR [10]: Little or no binding
high affinity sites per cell [11]: 86,000 sites per cell
Hill slope ([11]; specific-binding data): 1.08
Bmax, high-affinity site ([11]; two-site model): 139±74 fmol/10^6 cells
Bmax, low-affinity site ([11]; two-site model): 1.6±1.4×10^6 fmol/10^6 cells
